Like-named read-outs stand apart in the source and are kept apart here.

Assay [1] relates to endogenous ATP receptors present in the HeLa cells. Kind of assay: HF1 reporter cell luciferase assay, endogenous ATP receptors. It counts as cell-based. Conditions: stimulation for 16 hours, read-out: EC50, TRE-mediated luciferase response. How it is done: FIG. 5 illustrates the response of endogenous ATP receptors present in the HeLa cells used to establish a reporter cell line, HF1, of the invention.
A. Dose-response curve following stimulation with varying concentrations of ATP for 16 hours. […] Error bars indicate± SEM.
(§1) The medium was removed and cell lysis buffer added. Plates were stored at −70° C. until further analysis.

For assay [2], the system named is reporter plasmids in HeLa cells. The assay is described as follows: HeLa cells transiently transfected with reporter plasmids, luciferase amplification. The format is cell-based. The note with it: 100 nM PMA, 10^−6 M thapsigargin where added, 10 h, ratio of RLU, stimulated to non-stimulated cells. Here is the method: (§2) Cells electroporated for transient expression were stimulated with 100 nM PMA for 10 hours. Amplification was calculated as the ratio between the relative luminescence units (RLU) of stimulated and non-stimulated cells. Results are expressed as mean values+SEM of three to four independent transfection experiments each performed in triplicate; n.d.=not determined.
as §1
(§3) The prototypic reporter plasmids (pcFUS2; pcFUS2-6xSTAT/NFκB; pcFUS3 and pGL3-12xSTAT/NFκB) were used to transfect HeLa cells transiently by electroporation. Cells were stimulated 24 h post transfection with 100 nM PMA or 100 nM PMA and 10^−6 M thapsigargin or treated as controls. After 10 h of incubation, the cells were lysed and assayed.

In assay [3] the test system is HeLa cells. The assay is described as follows: Luciferase assay of HeLa cells transiently transfected with prototypic reporter plasmids. It counts as cell-based. The note with it: Homo sapiens, 10 h, 100 nM PMA, or 100 nM PMA and 10^−6 M thapsigargin, read-out: Amplification value. How it is done:
as §2, §1, §3

Assay [4] addresses T1, chemokine receptor, CCR5 (Homo sapiens, UniProt P51681). The assay is described as follows: cell-based or functional assay.
The target of assay [5] is T1, chemokine receptor, CCR5. Kind of assay: HF1pCCR5 reporter cell luciferase assay. The format is cell-based. The arrangement: All receptor ORFs were inserted into the pIRESpuro vector (Clontech) by standard techniques; expressed in transfected cells; host or cells: HeLa-derived HF1 reporter cells (HF1pCCR5), pIRESpuro vector. The note with it: CCR5 stably expressed in HF1 reporter cells; read-out: EC50 (agonist concentration giving half maximum effect).

Setting [6] is: plasmid pcFUS3 (6 × STAT/NFκB; 9 × AP-1).

T1 sequence (P51681 whole entry): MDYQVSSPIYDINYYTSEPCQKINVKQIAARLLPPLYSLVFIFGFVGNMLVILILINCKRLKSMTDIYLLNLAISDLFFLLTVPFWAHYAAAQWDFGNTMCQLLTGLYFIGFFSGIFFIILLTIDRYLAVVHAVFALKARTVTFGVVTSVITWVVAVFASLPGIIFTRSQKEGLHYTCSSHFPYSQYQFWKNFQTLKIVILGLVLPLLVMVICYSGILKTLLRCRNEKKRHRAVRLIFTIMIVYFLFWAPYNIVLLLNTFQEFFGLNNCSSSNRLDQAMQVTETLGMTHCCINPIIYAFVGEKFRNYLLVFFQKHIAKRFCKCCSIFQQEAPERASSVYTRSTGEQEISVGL

As for `Nc1ncnc2c1ncn2[C@@H]1O[C@H](COP(=O)(O)OP(=O)(O)OP(=O)(O)O)[C@@H](O)[C@H]1O` [ATP], in assay [1], the EC50 came to 107000 nM.

Take `CCCCCCCCCCCCCC(=O)O[C@@H]1[C@@H](C)[C@@]2(O)[C@@H](C=C(CO)C[C@]3(O)C(=O)C(C)=C[C@@H]23)[C@@H]2C(C)(C)[C@]12OC(C)=O` [PMA]: the Amplification value in assay [2] (plasmid pGL3-12 × STAT/NFκB) turned out to be 4.16 ± 2.00; in assay [2] (plasmid pcFUS2 (9 × AP-1)), 2.53 ± 2.00; in assay [2] (plasmid pcFUS2-6 × STAT/NFκB), 3.78 ± 1.44; in assay [2] (setting [6]) it was 7.37 ± 3.29. In addition, the fold induction at 0.1 µM in assay [3] (plasmid pGL3-12 × STAT/NFκB) is 4.16 ± 2; in assay [3] (plasmid pcFUS2 (9 × AP-1)), 2.53 ± 2; in assay [3] (plasmid pcFUS2-6 × STAT/NFκB) it was 3.78 ± 1.44; in assay [3] (setting [6]), 7.37 ± 3.29.

In assay [4], “RANTES (from UniProt P13501 24-91) (ligand)” gave an EC50 (agonist concentration giving half maximum effect), luciferase reporter in HF1 cells stably expressing CCR5 of 111 nM.

With “RANTES: a peptide (having the sequence RANTES), agonist of the chemokine receptor CCR5”, in assay [5], the EC50 is 111 nM.
